According to patent US10973932B2, “Preclinical model of neonatal necrotizing enterocolitis” (University of South Florida, priority 2017, dated 2021):

What was measured:
anemic-transfused mice = assay: RBC transfusion-associated NEC-like injury in anemic-transfused mouse pups; assay type: in vivo
Procedure: Experimental design: Animal studies were approved by the Institutional Animal Care and Use Committee. C57BL/6 mice pups were studied in 4 groups: (a) naïve control; (b) transfusion control; (c) anemic control; and (d) anemic-transfused mice. Naïve controls were maintained without intervention. Transfusion controls received an intravenous RBC transfusion (20 mL/kg into the retro-orbital venous plexus, injected in 2 aliquots on each side) on postnatal day 11 (P11). RBCs for transfusion were collected in a sterile fashion from adult FVB/NJ donors after sacrifice into citrate-phosphate-dextrose-adenine-1 (CPDA-1; Sigma, St. Louis, Mo.; 6 parts blood: 1 part CPDA-1). […] Hematocrits and RBC indices were measured at each phlebotomy and then everyday on P11-13; 5 μL blood was diluted 1:20 in Cellpak reagent (Sysmex, Kobe, Japan) and analyzed in the Sysmex XT-2000iV automated veterinary hematology analyzer. […] To measure gut barrier function, FITC-dextran was administered by gavage (10 kDa, 400 mg/kg) 4 hrs before sacrifice and measured the FITC fluorescence signal in plasma samples obtained just prior to sacrifice. To measure regional blood flow, […] fluorescence-labeled microspheres were administered intravenously (15 μm, ThermoFisher, Waltham, Mass.) 1 hr before sacrifice and the fluorescence signal was measured in tissue lysates. […]

[1] = tested on: monocytes and macrophages; assay: Depletion of intestinal monocytes/macrophages (flow cytometry); assay type: in vivo, mouse; conditions: CSF1R-DTR/mCherry×Lyz2-cre pups; 5 ng/g weight; FIG. 7E
Procedure: Flow cytometry: Macrophages were defined by flow cytometry (BD LSRII, Franklin Lakes, N.J.). Intestinal tissue was washed with Hanks' balanced-salt solution (HBSS) containing 1 mM DTT (Sigma) to remove mucus, and then treated first with HBSS containing 1 mM EDTA (Sigma)×20 min at 37° C., and then with HBSS containing 1 mM collagenase type IV (Sigma)×2 hrs at 37° C. Cell suspension was stained using established protocols with the L-D viability dye (ThermoFisher), lineage cocktail (BioLegend, San Diego, Calif.), and antibodies against CD11b, Ly6C, F4/80, Ly6G, and Ly6B (BioLegend).
Murine intestinal macrophages: Murine intestinal macrophages were isolated by immunomagnetic separation, where these cells were first stained with phycoerythrin (PE)-conjugated anti-CD11b, anti-F4/80, and anti-Ly6C antibodies and then separated using anti-PE-conjugated ferromagnetic beads (Miltenyi Biotec, San Diego, Calif.). In some experiments, monocytes and macrophages were depleted by administering clodronate liposomes (Clodrosome, Brentwood, Tenn.). A 50 mg/kg intraperitoneal dose was used and an identical dose by enema on postnatal day 8, which depleted >80% monocytes and macrophages in 72 hrs (pre-determined optimum).
These findings were confirmed using a second, more specific approach for macrophage depletion. […]

NF-κB = NF-κB reporter RAW264.7 macrophages stimulated with 7-day-stored RBCs; assay type: cell-based, murine; conditions: haptoglobin 10 μg/mL added with 7-day RBCs; FIG. 5H

Molecule: diphtheria toxin
- transfusion-associated NEC-like injury (onset, severity of bowel injury) (anemic-transfused mice; CSF1R-DTR/mCherry×Lyz2-cre anemic-transfused pups, 5 ng/g weight, FIGS. 7E-7G): protective
- inflammatory F4/80mid CD115+Ly6Chi macrophages (not resident macrophages) [1]: selectively depleted

B1: recombinant haptoglobin: recombinant haptoglobin, a natural chelator of free hemoglobin (protein, UniProt P00738 19-406, looked up)
Haptoglobin: VDSGNDVTDIADDGCPKPPEIAHGYVEHSVRYQCKNYYKLRTEGDGVYTLNDKKQWINKAVGDKLPECEADDGCPKPPEIAHGYVEHSVRYQCKNYYKLRTEGDGVYTLNNEKQWINKAVGDKLPECEAVCGKPKNPANPVQRILGGHLDAKGSFPWQAKMVSHHNLTTGATLINEQWLLTTAKNLFLNHSENATAKDIAPTLTLYVGKKQLVEIEKVVLHPNYSQVDIGLIKLKQKVSVNERVMPICLPSKDYAEVGRVGYVSGWGRNANFKFTDHLKYVMLPVADQDQCIRHYEGSTVPEKKTPKSPVGVQPILNEHTFCAGMSKYQEDTCYGDAGSAFAVHDLEEDTWYATGILSFDKSCAVAEYGVYVKVTSIQDWVQKTIAEN
- transfusion-associated NEC-like injury (onset, severity of bowel injury) (anemic-transfused mice; intravenous 10 μg/g body weight 1 hr before transfusion, FIGS. 5I-5J): protective
- inflammatory effect of 7-day-stored RBC units on macrophages (relative NF-κB activity) (NF-κB): reversed
